Values of other authors, collected in patent publication US20070105828A1, “Novel polymorph form M of mifepristone and process for its preparation” (Glenmark Pharmaceuticals Limited, priority 2005, published 2007).

Target: glucocorticoid receptor (Homo sapiens, UniProt P04150)
Conditions: relative to dexamethasone; background statement

glucocorticoid receptor, sequence (P04150 whole entry, species assumed): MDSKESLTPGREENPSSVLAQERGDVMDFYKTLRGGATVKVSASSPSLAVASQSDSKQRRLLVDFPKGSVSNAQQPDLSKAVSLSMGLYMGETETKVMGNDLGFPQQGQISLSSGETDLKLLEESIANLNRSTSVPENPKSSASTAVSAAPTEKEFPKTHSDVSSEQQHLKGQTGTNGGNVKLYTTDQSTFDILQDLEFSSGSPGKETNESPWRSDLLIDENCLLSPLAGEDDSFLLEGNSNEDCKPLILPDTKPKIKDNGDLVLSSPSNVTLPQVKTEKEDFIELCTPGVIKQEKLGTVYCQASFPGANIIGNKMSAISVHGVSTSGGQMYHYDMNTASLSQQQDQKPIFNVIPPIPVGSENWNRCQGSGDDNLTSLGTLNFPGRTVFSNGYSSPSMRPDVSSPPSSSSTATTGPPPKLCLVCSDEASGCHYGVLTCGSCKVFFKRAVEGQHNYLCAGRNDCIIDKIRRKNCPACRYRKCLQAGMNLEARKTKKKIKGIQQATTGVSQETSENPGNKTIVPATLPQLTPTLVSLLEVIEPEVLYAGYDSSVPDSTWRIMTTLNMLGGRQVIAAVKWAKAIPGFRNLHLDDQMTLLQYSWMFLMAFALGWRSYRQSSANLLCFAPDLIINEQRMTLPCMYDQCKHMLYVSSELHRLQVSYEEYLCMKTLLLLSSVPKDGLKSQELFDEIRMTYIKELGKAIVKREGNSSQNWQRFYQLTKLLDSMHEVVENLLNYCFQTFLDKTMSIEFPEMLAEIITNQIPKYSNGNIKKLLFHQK

Structure (SMILES): CC#C[C@]1(O)CC[C@H]2[C@@H]3CCC4=CC(=O)CCC4=C3[C@@H](c3ccc(N(C)C)cc3)C[C@@]21C [Mifepristone, (11β,17β)-11-[4-(N,N-dimethylamino)phenyl]-17-hydroxy-17-(1-propynyl)estra-4,9-diene-3-one]
- affinity for the glucocorticoid receptor compared with dexamethasone: three times greater than that of dexamethasone
